Structures can show the parent of a compound that is named as a salt.
Experiment: RP, Thermo Scientific Hypersil GOLD, 1.9 µm, 40 °C, 0.4 mL/min; A: water + 0.1% formic acid, pH 3; B: acetonitrile + 0.1% formic acid, pH 3; gradient (min/%B) 0/0 1/0 11/100 13/100 14/0 16/0
Settings: stereoisomer not certain

Row | LC retention time [min] | SMILES
1 | 0.78 | Nc1nc2nc[nH]c2c(=O)[nH]1 [GUANINE]
2 | 0.61 | Cc1ncc(C[n+]2csc(CCO)c2C)c(N)n1 [THIAMINE]
3 | 0.81 | O=c1[nH]c(=O)c2[nH]c(=O)[nH]c2[nH]1 [URATE]
4 | 5.42 | COC(=O)CCCCC(=O)O [mono-Methyl adipate]
5 | 6.1 | CC(=O)Oc1cccc(O)c1 [RESORCINOL MONOACETATE]
6 | 11 | COC1=C(OC)C(=O)C(CC=C(C)CCC=C(C)C)=C(C)C1=O [coenzyme Q2]
7 | 7.44 | COC(=O)Cc1c[nH]c2ccccc12 [INDOLE-3-METHYL ACETATE]
8 | 0.72 | Cc1ncc(CO)c(C=O)c1O [PYRIDOXAL]
9 | 0.82 | [NH3+]CC(=O)N1CCCC1C(=O)[O-] (stereo not given) [Gly-Pro]
10 | 5.47 | CC(=O)NC(CC(C)C)C(=O)O (stereo not given) [N-ACETYLLEUCINE]
11 | 4.21 | NC(=O)c1ccc[n+](C2OC(COP(=O)(O)OP(=O)(O)OCC3OC(n4cnc5c(N)ncnc54)C(OP(=O)(O)O)C3O)C(O)C2O)c1 (stereo not given) [NADP]
12 | 0.61 | OC1C(O)C(O)C(O)C(O)C1O (stereo not given) [MYOINOSITOL]
13 | 0.83 | O=c1[nH]cnc2nc[nH]c12 [HYPOXANTHINE]
14 | 0.83 | NC(=O)c1cccnc1 [NICOTINAMIDE]
15 | 7.42 | NC(Cc1cc(I)c(Oc2cc(I)c(O)c(I)c2)c(I)c1)C(=O)O (stereo not given) [THYROXINE]
16 | 4.13 | Cc1cc(=O)oc(C)c1C(=O)O [Isodehydracetic acid]
17 | 12.7 | CCCCCCCCCCCCCCCCC(=O)O [HEPTADECANOATE]
18 | 0.69 | OCC1OC(OC2(CO)OC(CO)C(O)C2O)C(O)C(O)C1O (stereo not given) [SUCROSE]
19 | 6.03 | Cc1cc2nc3[nH]c(=O)[nH]c(=O)c3nc2cc1C [LUMICHROME]
20 | 5.53 | O=c1c(OC2OC(CO)C(O)C(O)C2O)c(-c2ccc(O)c(O)c2)oc2cc(O)cc(O)c12 [Quercetin-3-beta-D-glucoside]
21 | 0.82 | O=C([O-])c1ccccn1 [PICOLINATE]
22 | 0.64 | O=C(CO)C(O)C(O)C(O)CO (stereo not given) [SORBOSE]
23 | 0.83 | O=C(O)c1ccc[n+]([O-])c1 [Nicotinic acid N-oxide]
24 | 0.83 | Cc1ncc(COP(=O)(O)O)c(C=O)c1O [PYRIDOXAL-PHOSPHATE]
25 | 6.26 | O=C(O)c1ccccc1O [SALICYLATE]
26 | 0.81 | c1ncc2[nH]cnc2n1 [PURINE]

Row | LC retention time [min] | SMILES
27 | 4.92 | O=C(O)CNC(=O)c1ccccc1 [HIPPURATE]
28 | 0.63 | CNC(CC(=O)O)C(=O)O (stereo not given) [N-METHYLASPARTATE]
29 | 12.1 | CCCCCCCCC=CCCCCCCCC(=O)OCC(O)CO (stereo not given) [OLEOYL-GLYCEROL]
30 | 0.83 | O=c1[nH]c(=O)c2ncn(C3OC(COP(=O)(O)O)C(O)C3O)c2[nH]1 (stereo not given) [XANTHOSINE-MONOPHOSPHATE]
31 | 0.68 | OCC(O)CO [GLYCEROL]
32 | 0.61 | NCCOP(=O)(O)O [O-PHOSPHOETHANOLAMINE]
33 | 0.68 | OCC1OC(OCC2OC(OC3(CO)OC(CO)C(O)C3O)C(O)C(O)C2O)C(O)C(O)C1O (stereo not given) [RAFFINOSE]
34 | 6.15 | CC=CC=CC(=O)O [SORBATE]
35 | 6.96 | O=C(O)/C=C/c1ccccc1 [TRANS-CINNAMATE]
36 | 0.84 | O=c1cc[nH]c(=O)[nH]1 [URACIL]
37 | 0.69 | O=C(O)C1CCCN1 (stereo not given) [PROLINE]
38 | 0.67 | O=P(O)(O)OCC(O)CO (stereo not given) [GLYCEROL 3-PHOSPHATE]
39 | 4.11 | CC(C)(CO)C(O)C(=O)NCCC(=O)O (stereo not given) [PANTOTHENATE]
40 | 4.6 | CC(C)CC(=O)NCC(=O)O [Isovaleroylglycine]
41 | 0.83 | CC(=O)NC(CC(=O)O)C(=O)O (stereo not given) [N-ACETYLASPARTATE]
42 | 0.82 | O=C(O)C=Cc1cnc[nH]1 [UROCANATE]
43 | 11.7 | C=Cc1c(C)c2cc3[nH]c(cc4nc(cc5nc(cc1[nH]2)C(C)=C5CCC(=O)O)C(CCC(=O)O)=C4C)c(C)c3C=C [PROTOPORPHYRIN]
44 | 0.61 | OCC1OC(OC2C(CO)OC(OC3C(CO)OC(O)C(O)C3O)C(O)C2O)C(O)C(O)C1O (stereo not given) [Maltotriose]
45 | 0.82 | NC(=O)C=CC(=O)O [MALEAMATE]
46 | 11.7 | CCCCCCC=CCCCCCCCC(=O)O [PALMITOLEATE]
47 | 0.65 | OCC1OC(OC2OC(CO)C(O)C(O)C2O)C(O)C(O)C1O (stereo not given) [TREHALOSE]
48 | 6.88 | Cc1cc(O)cc2c1OC(C)(CCC(=O)O)CC2 (stereo not given) [delta CEHC]
49 | 1.53 | O=c1[nH]cnc2c1ncn2C1OC(CO)C(O)C1O (stereo not given) [INOSINE]
50 | 0.69 | CCC(N)C(=O)O [alpha-aminobutyric acid (L-2-aminobutyric acid)]
51 | 0.62 | NC1C(O)OC(COS(=O)(=O)O)C(O)C1O (stereo not given) [GLUCOSAMINE 6-SULFATE]

More lines, now with the values behind:

Row | SMILES | LC retention time [min]
52 | CC(C)C(C(=O)O)C(O)C(=O)O (stereo not given) [3-isopropylmalic acid] | 4.68
53 | O=C1OC(CO)C(O)C(O)C1O (stereo not given) [GLUCONOLACTONE] | 0.64
54 | O=S(=O)(O)c1ccc(O)c(O)c1 [3-4-dihydroxybenzenesulfonic acid] | 0.84
55 | Nc1ccn(C2CC(O)C(CO)O2)c(=O)n1 (stereo not given) [DEOXYCYTIDINE] | 0.83
56 | Nc1ncnc2c1ncn2C1OC(COP(=O)(O)O)C(O)C1O (stereo not given) [ADENOSINE-MONOPHOSPHATE] | 0.77
57 | CCC(=O)C(=O)[O-] [2-OXOBUTANOATE] | 9.98
58 | C[N+](C)(C)CCO [CHOLINE] | 0.62
59 | O=C(O)c1cc(O)ccc1O [2-5-DIHYDROXYBENZOATE] | 4.52
60 | CC(C)C(O)C(=O)O (stereo not given) | 4.13
61 | CC1NC(=O)NC1CCCCCC(=O)O (stereo not given) [DETHIOBIOTIN] | 5.47
62 | O=C(O)CCCCCCCC(=O)O [AZELATE] | 6.12
63 | CC(CCC(=O)O)C1CCC2C3C(O)C(O)C4CC(O)CCC4(C)C3CCC12C (stereo not given) [5b-cholanic acid-3a-6a-7a-TRIOL] | 7.96
64 | O=C(O)CC(O)(CC(=O)O)C(=O)O [CITRATE] | 0.9
65 | Nc1nc2c(ncn2C2CC(O)C(CO)O2)c(=O)[nH]1 (stereo not given) [DEOXYGUANOSINE] | 1.77
66 | CC(=O)N[C@@H]1[C@@H](O)[C@H](O)[C@@H](CO)O[C@H]1N [2-ACETAMIDO-2-DEOXY-BETA-D-GLUCOSYLAMINE] | 0.6
67 | Cn1cncc1CCN [3-METHYLHISTAMINE] | 0.57
68 | C[N+](C)(C)CC(=O)[O-] [BETAINE] | 0.65
69 | NC(C(=O)O)C(O)C(O)C(O)CO (stereo not given) [GLUCOSAMINATE] | 0.62
70 | Nc1ccccc1C(=O)O [ANTHRANILATE] | 5.29
71 | CC(C)(O)C(=O)O [ALPHA-HYDROXYISOBUTYRATE] | 1.62
72 | Cn1c(=O)c2c(ncn2C)n(C)c1=O [CAFFEINE] | 4.85
73 | OCC(O)c1ccc(O)c(O)c1 (stereo not given) [3-4-DIHYDROXYPHENYLGLYCOL] | 0.92
74 | O=CCC(O)C(O)CO (stereo not given) | 0.82
75 | NC(=O)c1ncn(C2OC(COP(=O)(O)O)C(O)C2O)c1N (stereo not given) [AICAR] | 0.76
76 | CC(O)(CC(=O)O)C(=O)O (stereo not given) [CITRAMALATE] | 1.23

Row | SMILES | LC retention time [min]
77 | CC(C)=CC(=O)OC(CC(=O)[O-])C[N+](C)(C)C [3-Methylcrotonyl-L-carnitine] | 4.71
78 | C=C(C)C1CC=C(CO)CC1 [(S)-(-)-Perillyl alcohol] | 8.07
79 | CC(C)(N)C(=O)O [2-AMINOISOBUTYRATE] | 0.67
80 | O=C1CCNC(=O)N1 [DIHYDROURACIL] | 0.82
81 | CC(C)(CC(=O)O)C(=O)O [2-2-Dimethylsuccinic acid] | 4.85
82 | Nc1ccccc1O [2-AMINOPHENOL] | 0.9
83 | COc1cc(C(O)CN)ccc1O (stereo not given) [NORMETANEPHRINE] | 0.82
84 | O=C(O)c1cccc(O)c1O [2-3-DIHYDROXYBENZOATE] | 5.01
85 | CC12CCC3C(CC=C4CC(O)CCC43C)C1CCC2=O (stereo not given) [3-b-Hydroxyandrost-5-en-17-one (Dehydroepiandrosterone)] | 4.86
86 | NCCC(=O)NC(Cc1cnc[nH]1)C(=O)O (stereo not given) [CARNOSINE] | 0.59
87 | CCCCCCCCCC(=O)OC(CC(=O)[O-])C[N+](C)(C)C [Decanoyl-L-carnitine] | 7.63
88 | CN1C2CC(OC(=O)C(CO)c3ccccc3)CC1C1OC12 (single isomer, unassigned; (-)) [(-)-Scopolamine hydrochloride] | 4.91
89 | Cc1ccc(O)c(O)c1 [4-METHYLCATECHOL] | 6.6
90 | Nc1ccc(C(=O)O)cc1 [4-AMINOBENZOATE] | 3.29
91 | O=C(O)C=Cc1ccc(O)cc1 [4-COUMARATE] | 5.43
92 | CC(CCC(=O)O)C1CCC2C3C(O)CC4CC(O)CCC4(C)C3CCC12C (stereo not given) [CHENODEOXYCHOLATE] | 9.15
93 | Cn1cnc(C[C@H](N)C(=O)O)c1 [1-METHYL-L-HISTIDINE] | 0.59
94 | O=C(O)c1ccc2ccccc2n1 [2-QUINOLINECARBOXYLATE] | 4.64
95 | Cn1c[n+](C2OC(CO)C(O)C2O)c2nc(N)[nH]c(=O)c21 (stereo not given) [7-Methylguanosine] | 0.83
96 | NC1C(O)OC(COP(=O)(O)O)C(O)C1O (stereo not given) [GLUCOSAMINE 6-PHOSPHATE] | 0.6
97 | OCCNCCO [DIETHANOLAMINE] | 0.6
98 | O=C1CC(C(=O)O)NC(=O)N1 (stereo not given) [DIHYDROOROTATE] | 0.77
99 | NC(CSSCC(N)C(=O)O)C(=O)O (stereo not given) [CYSTINE] | 0.61
100 | Nc1cncc(C(=O)O)c1 [5-Aminopyridine-3-carboxylic acid] | 0.74

From the RepoRT retention time repository
